Patent US5583115A, “Dialkyltiacumicin compounds” (Abbott Laboratories, priority 1995, dated 1996)
Converted amounts (≈) assume the structure as drawn.

Tests used:
[1] = test system: Klebsiella pneumoniae; assay: MIC agar dilution, aerobic and facultative bacteria; settings: Culture # 2518
[2] = test system: Staphylococcus aureus; assay: as above
[3] = test system: Mycobacterium smegmatis; assay: as above; settings: Culture # 5171
[4] = test system: C. difficile; assay: MIC agar dilution, anaerobic bacteria; type: cell-based
[5] = test system: Candida albicans; assay: MIC agar dilution, aerobic and facultative bacteria; settings: Culture # 3622
[6] = test system: B. thetaiotaomicron; assay: MIC agar dilution, anaerobic bacteria; type: cell-based
[7] = test system: B. bivius; assay: MIC agar dilution, anaerobic bacteria; type: cell-based; settings: Culture # 2483
[8] = test system: B. vulgatus; assay: MIC agar dilution, anaerobic bacteria; type: cell-based
[9] = test system: Streptococcus agalactiae; assay: MIC agar dilution, aerobic and facultative bacteria; settings: Culture # 1670
[10] = test system: E. coli; assay: as above; type: cell-based
[11] = test system: Streptococcus bovis; assay: as above; settings: Culture # 1699
[12] = test system: Fusobacterium nucleatum; assay: MIC agar dilution, anaerobic bacteria; type: cell-based; settings: Culture # 2478
[13] = test system: Veillonella parvula; assay: MIC agar dilution, anaerobic bacteria; type: cell-based; settings: Culture # 2479
[14] = test system: P. anaerobius; assay: MIC agar dilution, anaerobic bacteria; type: cell-based; settings: Culture # 1780
[15] = test system: B. disiens; assay: MIC agar dilution, anaerobic bacteria; type: cell-based; settings: Culture # 1763
[16] = test system: Pseudomonas aeruginosa; assay: MIC agar dilution, aerobic and facultative bacteria
[17] = test system: P. magnus; assay: MIC agar dilution, anaerobic bacteria; type: cell-based; settings: Culture # 1778
[18] = test system: Enterobacter aerogenes; assay: MIC agar dilution, aerobic and facultative bacteria; settings: Culture # 1677
[19] = test system: Propionibacterium acnes; assay: MIC agar dilution, anaerobic bacteria; type: cell-based; settings: Culture # 1775
[20] = test system: Acinetobacter calcoaceticus; assay: MIC agar dilution, aerobic and facultative bacteria; settings: Culture # 1845
[21] = test system: Fusobacterium species; assay: MIC agar dilution, anaerobic bacteria; type: cell-based; settings: Culture # 1770
[22] = test system: S. pyogenes; assay: MIC agar dilution, aerobic and facultative bacteria
[23] = test system: Providencia stuartii; assay: as above; settings: Culture # 1831
[24] = test system: Micrococcus luteus; assay: as above
[25] = test system: Enterococcus faecium; assay: as above; settings: Culture # 1668
[26] = test system: Peptostreptococcus asaccharolyticus; assay: MIC agar dilution, anaerobic bacteria; type: cell-based; settings: Culture # 1777
[27] = test system: C. ramosum; assay: MIC agar dilution, anaerobic bacteria; type: cell-based; settings: Culture # 2482
[28] = test system: Bacteriodes fragilis; assay: MIC agar dilution, anaerobic bacteria; type: cell-based
[29] = test system: P. cepacia; assay: MIC agar dilution, aerobic and facultative bacteria; settings: Culture # 1684
[30] = test system: Clostridium perfringens; assay: microbe, parasite or virus in culture; type: cell-based
[31] = test system: S. epidermidis; assay: MIC agar dilution, aerobic and facultative bacteria; settings: Culture # 1666
[32] = test system: Nocardia asteroides; assay: as above; settings: Culture # 5173
[33] = test system: P. species; assay: MIC agar dilution, anaerobic bacteria; type: cell-based; settings: Culture # 1776
[34] = test system: B. loescheii; assay: MIC agar dilution, anaerobic bacteria; type: cell-based; settings: Culture # 1767

Which MIC [1] does the source give for `CCc1c(Cl)c(O)c(Cl)c(O)c1C(=O)O[C@H]1[C@H](O)[C@H](OC)[C@H](OC/C2=C\C=C\C[C@H](O)/C(C)=C/[C@H](CC)[C@@H](O[C@@H]3OC(C)(C)[C@@H](OC(=O)C(C)C)[C@H](O)[C@@H]3O)/C(C)=C/C(C)=C/C[C@@H]([C@@H](C)O)OC2=O)O[C@@H]1C` [Tiacumicin B, tiacumicin B] here?
Its MIC is over 100 µg/mL.

And the MIC ([2]; Culture # 1662, brain heart infusion agar, 37° C., 20 hours)?
Its MIC is 6.2 µg/mL (≈ 5.86 µM).

And the MIC ([2]; Culture # 1664)?
Its MIC is 6.2 µg/mL (≈ 5.86 µM).

And the MIC ([2]; Culture # 1690)?
Its MIC is 12.5 µg/mL (≈ 11.8 µM).

What about the MIC ([2]; Culture # 2124) of the same compound?
Its MIC is 6.2 µg/mL (≈ 5.86 µM).

And the MIC ([2]; Culture # 2130)?
Its MIC is 12.5 µg/mL (≈ 11.8 µM).

And the MIC ([2]; Culture # 2498)?
Its MIC is 6.2 µg/mL (≈ 5.86 µM).

What about the MIC ([2]; cipro res., Culture # 3384) of the same compound?
Its MIC is 12.5 µg/mL (≈ 11.8 µM).

What about the MIC [3] of the same compound?
Its MIC is 12.5 µg/mL (≈ 11.8 µM).

What about the MIC ([4]; Culture # 1496) of the same compound?
Its MIC is 0.06 µg/mL (≈ 0.0567 µM).

What about the MIC ([4]; Culture # 1497) of the same compound?
The MIC was 0.06 µg/mL (≈ 0.0567 µM).

And the MIC ([4]; Culture # 1774)?
The MIC was 0.03 µg/mL (≈ 0.0284 µM).

What about the MIC ([4]; Culture # 2025) of the same compound?
The MIC was 0.06 µg/mL (≈ 0.0567 µM).

And the MIC ([4]; Culture # 2480)?
Its MIC is 0.06 µg/mL (≈ 0.0567 µM).

And the MIC ([4]; Culture # 2528)?
Its MIC is 0.06 µg/mL (≈ 0.0567 µM).

And the MIC ([4]; Culture # 2529)?
The MIC was 0.06 µg/mL (≈ 0.0567 µM).

And the MIC [5]?
Its MIC is over 100 µg/mL.

What about the MIC ([6]; Culture # 1764) of the same compound?
Its MIC is over 128 µg/mL.

What about the MIC ([6]; Culture # 1765) of the same compound?
The MIC was over 128 µg/mL.

What about the MIC ([6]; Culture # 1766) of the same compound?
The MIC was over 128 µg/mL.

What about the MIC [7] of the same compound?
The MIC was 128 µg/mL (≈ 121 µM).

And the MIC ([8]; Culture # 1762)?
Its MIC is over 128 µg/mL.

And the MIC ([8]; Culture # 2481)?
Its MIC is over 128 µg/mL.

What about the MIC [9] of the same compound?
Its MIC is 12.5 µg/mL (≈ 11.8 µM).

And the MIC ([10]; DC-2, Culture # 1674)?
Its MIC is over 100 µg/mL.

And the MIC ([10]; H560, Culture # 1675)?
The MIC was over 100 µg/mL.

What about the MIC ([10]; Juhl, Culture # 1673) of the same compound?
The MIC was over 100 µg/mL.

And the MIC ([10]; KNK437, Culture # 1676)?
The MIC was over 100 µg/mL.

And the MIC ([10]; SS, Culture # 2489)?
Its MIC is over 100 µg/mL.

And the MIC [11]?
The MIC was 25 µg/mL (≈ 23.6 µM).

And the MIC [12]?
The MIC was over 128 µg/mL.

What about the MIC [13] of the same compound?
The MIC was 64 µg/mL (≈ 60.5 µM).

What about the MIC [14] of the same compound?
The MIC was 8 ng/mL (≈ 0.00756 µM).

And the MIC [15]?
The MIC was 32 µg/mL (≈ 30.2 µM).

What about the MIC ([16]; Culture # 1679) of the same compound?
Its MIC is over 100 µg/mL.

And the MIC ([16]; Culture # 1680)?
Its MIC is over 100 µg/mL.

What about the MIC ([16]; Culture # 1681) of the same compound?
Its MIC is over 100 µg/mL.

What about the MIC ([16]; Culture # 1682) of the same compound?
Its MIC is 12.5 µg/mL (≈ 11.8 µM).

What about the MIC ([16]; cipro R, Culture # 1919) of the same compound?
Its MIC is over 100 µg/mL.

And the MIC ([16]; cipro R, Culture # 1920)?
Its MIC is over 100 µg/mL.

What about the MIC [17] of the same compound?
The MIC was 0.5 µg/mL (≈ 0.473 µM).

And the MIC [18]?
Its MIC is over 100 µg/mL.

What about the MIC [19] of the same compound?
Its MIC is 4 µg/mL (≈ 3.78 µM).

And the MIC [20]?
The MIC was over 100 µg/mL.

What about the MIC [21] of the same compound?
Its MIC is over 128 µg/mL.

What about the MIC ([22]; Culture # 1671) of the same compound?
The MIC was 25 µg/mL (≈ 23.6 µM).

What about the MIC ([22]; const., Culture # 1672) of the same compound?
The MIC was 3.1 µg/mL (≈ 2.93 µM).

And the MIC ([22]; inducible, Culture # 2548)?
The MIC was 6.2 µg/mL (≈ 5.86 µM).

What about the MIC [23] of the same compound?
The MIC was over 100 µg/mL.

What about the MIC ([24]; Culture # 2493) of the same compound?
The MIC was 0.1 µg/mL (≈ 0.0945 µM).

What about the MIC ([24]; Culture # 2517) of the same compound?
The MIC was 0.2 µg/mL (≈ 0.189 µM).

What about the MIC [25] of the same compound?
The MIC was 6.2 µg/mL (≈ 5.86 µM).

What about the MIC [26] of the same compound?
Its MIC is 1 µg/mL (≈ 0.945 µM).

What about the MIC [27] of the same compound?
The MIC was over 128 µg/mL.

What about the MIC ([28]; Culture # 1756, Wilkins-Chalgren agar, 37° C., 48 hours) of the same compound?
Its MIC is over 128 µg/mL.

What about the MIC ([28]; Culture # 1757) of the same compound?
Its MIC is over 128 µg/mL.

And the MIC ([28]; Culture # 1758)?
Its MIC is over 128 µg/mL.

And the MIC ([28]; Culture # 1999)?
The MIC was over 128 µg/mL.

And the MIC [29]?
Its MIC is over 100 µg/mL.

And the MIC ([30]; Culture # 1771)?
The MIC was 8 ng/mL (≈ 0.00756 µM).

What about the MIC ([30]; Culture # 1772) of the same compound?
The MIC was 30 ng/mL (≈ 0.0284 µM).

And the MIC ([30]; Culture # 1773)?
The MIC was 8 ng/mL (≈ 0.00756 µM).

And the MIC [31]?
Its MIC is 3.1 µg/mL (≈ 2.93 µM).

And the MIC [32]?
The MIC was 0.39 µg/mL (≈ 0.369 µM).

And the MIC [33]?
Its MIC is 32 µg/mL (≈ 30.2 µM).

And the MIC [34]?
Its MIC is 64 µg/mL (≈ 60.5 µM).
